Assay results taken from US20230002397A1, “SMALL MOLECULE DEGRADERS OF HELIOS AND METODS OF USE” (DANA-FARBER CANCER INSTITUTE, INC., priority 2019, published 2023).
Where two headings read alike, the source gives them in different places.

Biological target: T1, IKZF2 (Homo sapiens, UniProt Q96SW2+Q9UKS7)
T1 construct: CRISPR/Cas9—mediated insertion of the HiBiT peptide tag (Promega™) to the N-terminus of the IKZF2 gene locus; endogenous in cells; host or cells: MOLT4 cells, with CRISPR/Cas9 knock-in of HiBiT at the endogenous IKZF2 locus
Assay: HiBit-IKZF2 assay (HiBiT-Helios degradation in MOLT4 cells)
Type: cell-based
Details: for Dmax: 10 μM to 0.00026 μM; for DC50: concentration at which 50% of HiBiT-Helios degradation was achieved
Description: The HiBiT protein tagging system was applied to MOLT4 cells via a CRISPR/Cas9—mediated insertion of the HiBiT peptide tag (Promega™) to the N-terminus of the IKZF2 gene locus (Neon™ Transfection System). The resulting HiBiT-Helios stable cell line was treated with the following compounds in triplicates following a 13-point concentration scheme ranging from 10 μM to 0.00026 μM. At the indicated timepoints, the Nano-Glo® HiBiT Lytic Detection System (Promega™) was utilized for detecting bioluminescence of the HiBiT tag in treated cells: abundance of the tag is proportionate to the level of luminescence. Following normalization to DMSO, dose-response curves were plotted (GraphPad Prism) to determine the concentration points at which 50% of HiBiT-Helios degradation was achieved by each compound. The extent of degradation (range of luminescence) from the highest to lowest concentration points was calculated to determine the Dmax.

[1] = MOLT-4, extent of degradation from highest to lowest concentration, read-out: Dmax

T1 sequence (Q9UKS7 whole entry): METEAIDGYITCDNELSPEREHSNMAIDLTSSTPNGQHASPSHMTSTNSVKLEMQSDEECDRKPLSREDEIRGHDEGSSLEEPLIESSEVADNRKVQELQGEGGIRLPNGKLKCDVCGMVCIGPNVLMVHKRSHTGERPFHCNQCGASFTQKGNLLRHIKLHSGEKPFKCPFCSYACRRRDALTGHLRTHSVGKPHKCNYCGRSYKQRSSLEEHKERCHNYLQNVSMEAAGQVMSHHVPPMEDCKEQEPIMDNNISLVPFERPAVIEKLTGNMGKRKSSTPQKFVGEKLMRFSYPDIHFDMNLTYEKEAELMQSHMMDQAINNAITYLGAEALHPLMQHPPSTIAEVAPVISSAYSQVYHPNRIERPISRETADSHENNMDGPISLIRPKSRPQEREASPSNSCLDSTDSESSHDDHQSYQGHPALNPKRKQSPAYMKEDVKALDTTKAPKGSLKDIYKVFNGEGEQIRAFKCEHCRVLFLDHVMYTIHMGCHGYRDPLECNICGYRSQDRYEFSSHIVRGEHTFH
T1 sequence (Q96SW2 whole entry): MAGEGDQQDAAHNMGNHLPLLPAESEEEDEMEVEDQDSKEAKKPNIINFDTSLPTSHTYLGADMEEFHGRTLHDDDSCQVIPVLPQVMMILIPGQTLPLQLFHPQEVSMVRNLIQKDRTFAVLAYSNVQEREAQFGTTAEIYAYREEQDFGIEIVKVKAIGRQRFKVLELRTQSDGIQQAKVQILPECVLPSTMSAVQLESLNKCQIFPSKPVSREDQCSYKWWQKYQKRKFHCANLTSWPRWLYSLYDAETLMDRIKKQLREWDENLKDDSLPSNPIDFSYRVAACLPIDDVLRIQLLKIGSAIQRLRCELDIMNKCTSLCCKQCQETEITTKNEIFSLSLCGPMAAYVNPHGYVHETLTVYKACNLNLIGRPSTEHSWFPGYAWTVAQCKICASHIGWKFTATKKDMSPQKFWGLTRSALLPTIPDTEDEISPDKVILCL
T1 sequence (Q16531 whole entry partner): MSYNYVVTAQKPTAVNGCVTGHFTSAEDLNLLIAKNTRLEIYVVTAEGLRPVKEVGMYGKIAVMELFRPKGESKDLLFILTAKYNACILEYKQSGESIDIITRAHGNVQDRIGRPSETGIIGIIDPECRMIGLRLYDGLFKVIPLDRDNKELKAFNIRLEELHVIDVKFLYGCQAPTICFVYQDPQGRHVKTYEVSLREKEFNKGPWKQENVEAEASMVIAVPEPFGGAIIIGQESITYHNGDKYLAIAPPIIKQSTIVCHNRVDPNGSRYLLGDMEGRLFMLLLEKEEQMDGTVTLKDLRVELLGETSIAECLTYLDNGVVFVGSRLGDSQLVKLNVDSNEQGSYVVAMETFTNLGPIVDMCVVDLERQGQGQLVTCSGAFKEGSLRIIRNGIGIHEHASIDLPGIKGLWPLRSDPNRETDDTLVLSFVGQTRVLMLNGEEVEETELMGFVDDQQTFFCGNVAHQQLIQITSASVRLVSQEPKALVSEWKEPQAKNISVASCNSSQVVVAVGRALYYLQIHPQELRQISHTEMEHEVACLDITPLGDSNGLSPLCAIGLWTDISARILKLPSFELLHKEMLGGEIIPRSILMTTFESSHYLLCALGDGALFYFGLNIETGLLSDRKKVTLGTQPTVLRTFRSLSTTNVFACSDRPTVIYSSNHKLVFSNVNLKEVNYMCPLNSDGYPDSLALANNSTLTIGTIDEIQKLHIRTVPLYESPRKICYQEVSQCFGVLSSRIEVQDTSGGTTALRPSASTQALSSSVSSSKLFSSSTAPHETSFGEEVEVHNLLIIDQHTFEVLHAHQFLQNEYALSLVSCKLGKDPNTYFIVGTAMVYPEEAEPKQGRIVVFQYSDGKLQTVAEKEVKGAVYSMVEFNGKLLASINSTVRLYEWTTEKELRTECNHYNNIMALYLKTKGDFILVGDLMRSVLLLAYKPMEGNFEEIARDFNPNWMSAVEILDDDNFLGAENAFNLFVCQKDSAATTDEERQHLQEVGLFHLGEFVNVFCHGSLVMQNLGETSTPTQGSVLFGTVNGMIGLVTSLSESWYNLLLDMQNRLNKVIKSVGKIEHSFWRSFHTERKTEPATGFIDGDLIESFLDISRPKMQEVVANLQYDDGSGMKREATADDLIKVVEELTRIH

Row | Compound | Dmax [1] [%] | DC50 [µM] | Dmax (extent of degradation from highest to lowest concentration)
1 | O=C1CCC(N2Cc3cc(C4CCN(Cc5cccc(C(=O)Nc6ccccn6)c5)CC4)ccc3C2=O)C(=O)N1 (stereo not shown) [Compound 156] | 50 to 70 | < 0.01 | 
2 | O=C1CCC(N2Cc3cc(C4(O)CCN(Cc5cccc(C(F)(F)F)c5)CC4)ccc3C2=O)C(=O)N1 (stereo not shown) [Compound 250] | > 70 | < 0.01 | 
3 | O=C1CCC(N2Cc3cc(C4CCN(Cc5ccc6c(c5)C(=O)N(c5cccc(Cl)c5)C6)CC4)ccc3C2=O)C(=O)N1 (stereo not shown) [Compound 176] | > 70 | 0.03 to 0.15 | 
4 | O=C1CCC(N2Cc3cc(C4CCN(Cc5ccc(S(=O)(=O)Nc6ccccn6)cc5)CC4)ccc3C2=O)C(=O)N1 (stereo not shown) [Compound 157] | 50 to 70 | 0.03 to 0.15 | 
5 | O=C1CCC(N2Cc3cc(C4CCN(Cc5cccc(Nc6ncc(F)cn6)c5F)CC4)ccc3C2=O)C(=O)N1 (stereo not shown) [Compound 230] | 50 to 70 | 0.03 to 0.15 | 
6 | CN(c1ccccc1)S(=O)(=O)c1ccc(CN2CCC(c3ccc4c(c3)CN(C3CCC(=O)NC3=O)C4=O)CC2)cc1 (stereo not shown) [Compound 92] | 50 to 70 | < 0.01 | 
7 | O=C1CCC(N2Cc3cc(C4CCN(Cc5cnc(Nc6ccccc6)o5)CC4)ccc3C2=O)C(=O)N1 (stereo not shown) [Compound 191] | 50 to 70 | 0.01 to 0.03 | 
8 | O=C1CCC(N2Cc3cc(C4(O)CCN(Cc5ccc6c(c5)CCO6)CC4)ccc3C2=O)C(=O)N1 (stereo not shown) [Compound 246] | > 70 | < 0.01 | 
9 | O=C1CCC(N2Cc3cc(C4(O)CCN(Cc5ccc6ncsc6c5)CC4)ccc3C2=O)C(=O)N1 (stereo not shown) [Compound 242] | > 70 | < 0.01 | 
10 | O=C1CCC(N2Cc3cc(C4(O)CCN(Cc5ccc(C(F)(F)F)cc5)CC4)ccc3C2=O)C(=O)N1 (stereo not shown) [Compound 251] | > 70 | < 0.01 | 
11 | O=C1CCC(N2Cc3cc(C4(O)CCN(Cc5cc(F)cc(F)c5)CC4)ccc3C2=O)C(=O)N1 (stereo not shown) [Compound 205] | > 70 | < 0.01 | 
12 | O=C1CCC(N2Cc3cc(C4CCN(Cc5ccnc(Oc6ccccc6)c5)CC4)ccc3C2=O)C(=O)N1 (stereo not shown) [Compound 43, 3-(1-oxo-5-(1-((2-phenoxypyridin-4-yl)methyl)piperidin-4-yl)isoindolin-2-yl)piperidine-2,6-dione] | 50 to 70 | 0.03 to 0.15 | 
13 | O=C1CCC(N2Cc3cc(C4CCN(Cc5cccc(N6CCCCS6(=O)=O)c5)CC4)ccc3C2=O)C(=O)N1 (stereo not shown) [Compound 97] | 30 to 50 | 0.01 to 0.03 | 
14 | O=C1CCC(N2Cc3cc(C4(O)CCN(Cc5cnc(-c6ccccc6)s5)CC4)ccc3C2=O)C(=O)N1 (stereo not shown) [Compound 240] | > 70 | < 0.01 | 
15 | O=C1CCC(N2Cc3cc(C4(O)CCN(Cc5cccc(Oc6ccccc6)c5)CC4)ccc3C2=O)C(=O)N1 (stereo not shown) [Compound 193] | > 70 | < 0.01 | 
16 | O=C1CCC(N2Cc3cc(C4CCN(Cc5ccc6c(c5)C(=O)N(c5ccccc5)CCC6)CC4)ccc3C2=O)C(=O)N1 (stereo not shown) [Compound 183, 3-(1-oxo-5-(1-((1-oxo-2-phenyl-2,3,4,5-tetrahydro-1H-benzo[c]azepin-8-yl)methyl)piperidin-4-yl)isoindolin-2-yl)piperidine-2,6-dione] | 50 to 70 | < 0.01 | 
17 | O=C1CCC(N2Cc3cc(C4CCN(Cc5ccnc(C(=O)Nc6ccccc6)c5)CC4)ccc3C2=O)C(=O)N1 (stereo not shown) [Compound 131] | 50 to 70 | 0.03 to 0.15 | 
18 | Cc1ccc(N2Cc3ccc(CN4CCC(c5ccc6c(c5)CN(C5CCC(=O)NC5=O)C6=O)CC4)cc3C2=O)cc1 (stereo not shown) [Compound 216] | 50 to 70 | < 0.01 | 
19 | O=C1CCC(N2Cc3cc(C4CCN(Cc5ccccc5C(=O)N5CC6C(C5)C6(F)F)CC4)ccc3C2=O)C(=O)N1 (stereo not shown) [Compound 111] | 30 to 50 | 0.03 to 0.15 | 
20 | O=C1CCC(N2Cc3cc(C4CCN(Cc5ccc6c(c5)C(=O)N(c5ncccn5)C6)CC4)ccc3C2=O)C(=O)N1 (stereo not shown) [Compound 178] | 30 to 50 | 0.01 to 0.03 | 
21 | O=C1CCC(N2Cc3cc(C4CCN(Cc5cccc(Nc6ncc(F)cn6)c5)CC4)ccc3C2=O)C(=O)N1 (stereo not shown) [Compound 226] | 30 to 50 | 0.01 to 0.03 | 
22 | O=C1CCC(N2Cc3cc(C4CCN(Cc5ccc6c(c5)CN(c5ccccc5)C6=O)CC4)ccc3C2=O)C(=O)N1 (stereo not shown) [Compound 123] | 50 to 70 | 0.01 to 0.03 | 
23 | O=C1CCC(N2Cc3cc(C4(O)CCN(Cc5ccc(Cl)cc5)CC4)ccc3C2=O)C(=O)N1 (stereo not shown) [Compound 268] | > 70 | < 0.01 | 
24 | O=C1CCC(N2Cc3cc(C4CCN(Cc5cccc(C(=O)Nc6ccccc6)c5)CC4)ccc3C2=O)C(=O)N1 (stereo not shown) [Compound 86, 3-((4-(2-(2,6-dioxopiperidin-3-yl)-1-oxoisoindolin-5-yl)piperidin-1-yl)methyl)-N-phenylbenzamide] | 50 to 70 | < 0.01 | 
25 | O=C1CCC(N2Cc3cc(C4(O)CCN(Cc5cccc(F)c5F)CC4)ccc3C2=O)C(=O)N1 (stereo not shown) [Compound 243] | > 70 | < 0.01 | 

Row | Compound | Dmax [1] [%] | DC50 [µM] | Dmax (extent of degradation from highest to lowest concentration)
26 | O=C1CCC(N2Cc3cc(C4CCN(Cc5ccc(S(=O)(=O)N6CCC7(CC7)C6)cc5)CC4)ccc3C2=O)C(=O)N1 (stereo not shown) [Compound 169] | 50 to 70 | < 0.01 | 
27 | O=C1CCC(N2Cc3cc(C4CCN(Cc5ccc6c(c5)C(=O)N(c5ccccn5)CCC6)CC4)ccc3C2=O)C(=O)N1 (stereo not shown) [Compound 184] | 50 to 70 | 0.01 to 0.03 | 
28 | Cc1cccc(N2Cc3ccc(CN4CCC(c5ccc6c(c5)CN(C5CCC(=O)NC5=O)C6=O)CC4)cc3C2=O)c1 (stereo not shown) [Compound 215] | > 70 | 0.01 to 0.03 | 
29 | O=C1CCC(N2Cc3cc(C4CCN(Cc5ccc6c(c5F)C(=O)N(c5ccccc5)C6)CC4)ccc3C2=O)C(=O)N1 (stereo not shown) [Compound 213] |  | 0.01 to 0.03 | ++ (“++” is from >50% to <70%)
30 | O=C1CCC(N2Cc3cc(C4(O)CCN(Cc5ccccc5OCc5ccccc5)CC4)ccc3C2=O)C(=O)N1 (stereo not shown) [Compound 276] | 50 to 70 | < 0.01 | 
31 | O=C1CCC(N2Cc3cc(C4CCN(Cc5cccc(N6CCN(c7ccccc7)C6=O)c5)CC4)ccc3C2=O)C(=O)N1 (stereo not shown) [Compound 48] | 50 to 70 | 0.03 to 0.15 | 
32 | O=C1CCC(N2Cc3cc(C4(O)CCN(Cc5ccc(F)c(F)c5)CC4)ccc3C2=O)C(=O)N1 (stereo not shown) [Compound 244] | > 70 | < 0.01 | 
33 | O=C1CCC(N2Cc3cc(C4(O)CCN(Cc5cccc(F)c5Cl)CC4)ccc3C2=O)C(=O)N1 (stereo not shown) [Compound 254] | > 70 | < 0.01 | 
34 | O=C1CCC(N2Cc3cc(C4(O)CCN(Cc5ccnc(Nc6ccccc6)c5F)CC4)ccc3C2=O)C(=O)N1 (stereo not shown) [Compound 198] | > 70 | < 0.01 | 
35 | O=C1CCC(N2Cc3cc(C4(O)CCN(Cc5ccc(F)c(Nc6ccccc6)n5)CC4)ccc3C2=O)C(=O)N1 (stereo not shown) [Compound 197] | 50 to 70 | < 0.01 | 
36 | N#CC1(COc2ccccc2CN2CCC(O)(c3ccc4c(c3)CN(C3CCC(=O)NC3=O)C4=O)CC2)CC1 (stereo not shown) [Compound 209] | 50 to 70 | 0.01 to 0.03 | 
37 | O=C1CCC(N2Cc3cc(C4CCN(Cc5ccc6c(c5)C(=O)N(c5ccccc5O)C6)CC4)ccc3C2=O)C(=O)N1 (stereo not shown) [Compound 218] | > 70 | 0.01 to 0.03 | 
38 | O=C1CCC(N2Cc3cc(C4CCN(Cc5ccc6c(c5)C(=O)N(c5cccc(F)c5)C6)CC4)ccc3C2=O)C(=O)N1 (stereo not shown) [Compound 175] | 50 to 70 | < 0.01 | 
39 | O=C1CCC(N2Cc3cc(C4CCN(Cc5ccc(C(=O)Nc6ccccc6)nc5)CC4)ccc3C2=O)C(=O)N1 (stereo not shown) [Compound 141] | 50 to 70 | 0.03 to 0.15 | 
40 | O=C1CCC(N2Cc3cc(C4CCN(Cc5cc6c(cn5)CN(c5ccccc5)C6=O)CC4)ccc3C2=O)C(=O)N1 (stereo not shown) [Compound 173] | 50 to 70 | 0.01 to 0.03 | 
41 | O=C1CCC(N2Cc3cc(C4(O)CCN(Cc5ccccc5)C4)ccc3C2=O)C(=O)N1 (stereo not shown) [Compound 210] | 30 to 50 | 0.03 to 0.15 | 
42 | Cc1ccccc1N1Cc2ccc(CN3CCC(c4ccc5c(c4)CN(C4CCC(=O)NC4=O)C5=O)CC3)cc2C1=O (stereo not shown) [Compound 214] | 50 to 70 | 0.01 to 0.03 | 
43 | O=C1CCC(N2Cc3cc(C4CCN(Cc5cccc(S(=O)(=O)N6CC7(COC7)C6)c5)CC4)ccc3C2=O)C(=O)N1 (stereo not shown) [Compound 62] | 50 to 70 | 0.03 to 0.15 | 
44 | O=C1CCC(N2Cc3cc(C4CCN(Cc5ccc6c(c5)C(=O)N(c5ccsn5)C6)CC4)ccc3C2=O)C(=O)N1 (stereo not shown) [Compound 223] | 50 to 70 | 0.01 to 0.03 | 
45 | O=C1CCC(N2Cc3cc(C4CCN(Cc5cccc(N6C(=O)Cc7cccnc76)c5)CC4)ccc3C2=O)C(=O)N1 (stereo not shown) [Compound 118] | 30 to 50 | 0.03 to 0.15 | 
46 | Cc1ccc(C)n1-c1ccc(CN2CCC(O)(c3ccc4c(c3)CN(C3CCC(=O)NC3=O)C4=O)CC2)cc1 (stereo not shown) [Compound 278] | > 70 | 0.01 to 0.03 | 
47 | O=C1CCC(N2Cc3cc(C4(O)CCN(Cc5c(F)cccc5F)CC4)ccc3C2=O)C(=O)N1 (stereo not shown) [Compound 245] | 50 to 70 | < 0.01 | 
48 | N#Cc1ccccc1CN1CCC(O)(c2ccc3c(c2)CN(C2CCC(=O)NC2=O)C3=O)CC1 (stereo not shown) [Compound 237] | 50 to 70 | < 0.01 | 
49 | O=C1CCC(N2Cc3cc(C4(O)CCN(Cc5ccc(C6CC6)cc5)CC4)ccc3C2=O)C(=O)N1 (stereo not shown) [Compound 270] | > 70 | < 0.01 | 
50 | COc1ccc(CN2CCC(O)(c3ccc4c(c3)CN(C3CCC(=O)NC3=O)C4=O)CC2)cc1 (stereo not shown) [Compound 262] | 50 to 70 | 0.01 to 0.03 | 
